Source: US10729643B2, “Methods for administration and methods for treating cardiovascular diseases with resiniferatoxin” (priority 2013, dated 2020)
Where two headings read alike, the source gives them in different places.

Tests used:
[1] = test system: infarcted heart / CSAR activation; experiment: Cardiac plasma extravasation (Evans Blue area); assay type: in vivo, rat; details: i.v.
From the text: This example illustrates local anti-inflammatory effects of RTX in the infarcted heart. Myocardial ischemia causes the production and release of several metabolites including bradykinin, prostaglandins and protons that stimulate cardiac sympathetic afferent nerve endings leading to increases in BP, HR and sympathetic nerve activity. As cardiac TRPV1-expressing sympathetic afferents also subserve a “dual sensory-efferent” function and release pro-inflammatory neuropeptides, we hypothesized that plasma extravasation and cardiac neuroinflammation follows myocardial ischemia. […] Inflammation in the infarct area may be due to tissue death whereas in peri-infarct and remote areas may be due to cardiac sympathetic afferent mediated neuroinflammation. This may explain why RTX prevented cardiac inflammation in non-infarct areas to a greater extent than in the infarct area.

[2] = test system: cardiac sympathetic afferent input; details: anesthetized CHF dogs; acute epicardial application; cited from earlier work
[3] = test system: cardiac sympathetic afferent input; details: anesthetized CHF rats; acute epicardial application; cited from earlier work

Compound | cardiac plasma extravasation after MI (Evans Blue area) ([1]; Spantide II 0.3 mg/kg, 2 min prior to injection of Evans Blue) | plasma extravasation following CSAR activation by epicardial capsaicin or bradykinin ([1]; acute pretreatment with Spantide II, 0.3 mg/kg) | baseline MAP, HR and RSNA [2] | baseline MAP, HR and RSNA [3]
Spantide II | attenuated | largely be abolished | – | –
CCN(CC)CC(=O)Nc1c(C)cccc1C [lidocaine] | – | – | decreased | decreased
